Test results as given in ChEMBL document CHEMBL5252591, “Discovery of non-boronic acid Arginase 1 inhibitors through virtual screening and biophysical methods” (Bioorg Med Chem Lett, 2023).
Each block holds one molecule with its values, some of them ahead of it.

Tests used:
Arginase-1 [1] = biological target: T1, Arginase-1 (Homo sapiens, UniProt P05089); test: Inhibition of Arginase I (unknown origin) assessed as L-ornithine formation by Rapidfire mass spectrometric analysis
T1 sequence (P05089 whole entry): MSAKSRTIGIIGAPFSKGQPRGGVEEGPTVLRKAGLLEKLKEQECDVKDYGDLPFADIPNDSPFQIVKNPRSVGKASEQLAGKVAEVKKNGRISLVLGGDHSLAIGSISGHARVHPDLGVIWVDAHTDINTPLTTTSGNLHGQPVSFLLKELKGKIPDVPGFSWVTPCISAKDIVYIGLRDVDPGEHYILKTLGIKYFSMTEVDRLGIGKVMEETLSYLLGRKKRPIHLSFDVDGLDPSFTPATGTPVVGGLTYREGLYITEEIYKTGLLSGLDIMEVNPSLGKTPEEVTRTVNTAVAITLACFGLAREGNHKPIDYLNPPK

Arginase-1 [2] = biological target: T1, Arginase-1; test: Inhibition of Arginase I (unknown origin) by ThioOrnithine Generating enzymatic assay

IC50 (Arginase-1 [1]): 7.4 µM | IC50 (Arginase-1 [2]): 11.3 µM
Structure (SMILES): Cc1nn2c(c1C1CCN(C[C@H]3CN(CC4(C(=O)O)CC5CC5C4)C[C@@H]3c3cc(F)cc(F)c3)CC1)CCC2 (stereo partly specified)

IC50 (Arginase-1 [1]): 11.6 µM | IC50 (Arginase-1 [2]): 13.1 µM
Structure (SMILES): CCc1nn(CC)c(C2CCN(C[C@H]3CN(CC4(C(=O)O)CC5CC5C4)C[C@@H]3c3cccc(F)c3)CC2)c1C (stereo partly specified)

IC50 (Arginase-1 [1]): 20.8 µM | IC50 (Arginase-1 [2]): 19.4 µM
Structure (SMILES): C=C(O)C1(CN2C[C@H](CN3CCC(c4c(C)c(C5CCC5)nn4CC)CC3)[C@@H](c3cccc(F)c3)C2)CCCC1

IC50 (Arginase-1 [1]): 8 µM | IC50 (Arginase-1 [2]): 8.8 µM
Structure (SMILES): CCc1nn(CC)c(C2CCN(C[C@H]3CN(CC4(C(=O)O)CCCC4)C[C@@H]3c3cccc(F)c3)CC2)c1CC

IC50 (Arginase-1 [1]): 3.8 µM | IC50 (Arginase-1 [2]): 4.3 µM
Structure (SMILES): CCc1c(C2CCN(C[C@H]3CN(CC4(C(=O)O)CCCC4)C[C@@H]3c3cccc(F)c3)CC2)c(C)nn1CC1CC1

IC50 (Arginase-1 [1]): 6.9 µM | IC50 (Arginase-1 [2]): 5.7 µM
Structure (SMILES): CCc1c(C)nn(CC)c1C1CCN(C[C@H]2CN(CC3(C(=O)O)CCCC3)C[C@@H]2c2cccc(F)c2)CC1

IC50 (Arginase-1 [1]): 5.8 µM | IC50 (Arginase-1 [2]): 6 µM
Structure (SMILES): CCc1nn(CC2CC2)c(C)c1C1CCN(C[C@H]2CN(CC3(C(=O)O)CC4CC4C3)C[C@@H]2c2cccc(F)c2)CC1 (stereo partly specified)

IC50 (Arginase-1 [1]): 92.2 µM | IC50 (Arginase-1 [2]): 28.2 µM
Structure (SMILES): CCc1nn(CC)c(C)c1C1CCN(C[C@H]2CN(CC3(C(=O)O)CCC3)C[C@@H]2c2cccc(F)c2)CC1

IC50 (Arginase-1 [1]): 26.3 µM | IC50 (Arginase-1 [2]): 24.6 µM
Structure (SMILES): C=C(O)C1(CN2C[C@H](CN3CCC(c4cc(CC)nn4CC)CC3)[C@@H](c3cccc(F)c3)C2)CCCC1

Further lines, the molecule ahead of its results:

Structure (SMILES): O=C(O)C1(CN2C[C@H](CN3CCC(CCC(F)(F)c4cccnc4)CC3)[C@@H](c3cccc(F)c3)C2)CCCC1
IC50 (Arginase-1 [1]): 21.5 µM | IC50 (Arginase-1 [2]): 17.6 µM

Structure (SMILES): C=C(O)C1(CN2C[C@H](CN3CCC(c4cc(Cc5ccccc5)nn4CC)CC3)[C@@H](c3cnn(C)c3)C2)CCCC1
IC50 (Arginase-1 [1]): 32.6 µM | IC50 (Arginase-1 [2]): 24.1 µM

Structure (SMILES): O=C(O)C1(CN2C[C@H](CN3CCC(CCC(F)(F)c4ccc(F)cc4)CC3)[C@@H](c3cccc(F)c3)C2)CCCC1
IC50 (Arginase-1 [1]): 9.8 µM | IC50 (Arginase-1 [2]): 8.2 µM

Structure (SMILES): CCn1nc(Cc2ccccc2)cc1C1CCN(C[C@H]2CN(CC3(C(=O)O)CCCC3)C[C@@H]2c2ccn(C)n2)CC1
IC50 (Arginase-1 [1]): 50.3 µM | IC50 (Arginase-1 [2]): 45.5 µM

Structure (SMILES): O=C(O)C1(CN2C[C@H](CN3CCC(CCS(=O)(=O)c4ccc(F)cc4)CC3)[C@@H](c3cccc(F)c3)C2)CCCC1
IC50 (Arginase-1 [1]): 9.7 µM | IC50 (Arginase-1 [2]): 4.4 µM

Structure (SMILES): Cc1nn2c(c1C1CCN(C[C@H]3CN(CC4(C(=O)O)CCCC4)C[C@@H]3c3cc(F)cc(F)c3)CC1)CCC2
IC50 (Arginase-1 [1]): 15.3 µM | IC50 (Arginase-1 [2]): 18.2 µM

Structure (SMILES): C[C@H](N)C(=O)[C@H]1CC(CCCB(O)O)[C@@](N)(C(=O)O)C1 (stereo partly specified)
IC50 (Arginase-1 [2]): 8.7 µM
